In patent US20120108669A1, “METHOD OF TREATING SLEEP DISORDERS USING EPLIVANSERIN” (SANOFI-AVENTIS, priority 2008, published 2012):

What was measured:
[1] = tested on: patients with chronic (primary) insomnia characterized by sleep maintenance difficulties; experiment: Study LTE6217: 12-week patient-reported sleep parameters (daily sleep questionnaire, IVRS); type: in vivo, human; conditions: 5 mg/day, MMRM, ITT; for Quality of sleep LS Mean (SEM) / Refreshing quality of sleep LS Mean (SEM) / pr-NAW LS Mean (SEM): mean change
Description: (§1) The Phase 3 program of development of eplivanserin in the treatment of patients with chronic (primary) insomnia characterized by sleep maintenance difficulties consisted of 3 randomized, double-blind (DB), placebo-controlled, efficacy and safety studies designed to assess the efficacy of eplivanserin on sleep maintenance either using polysomnography (PSG) recordings (6-week study EFC6220) or patient-reported outcome (12-week studies LTE6217 and LTE6262) collected daily on sleep questionnaires.
(§2) They were all double-blind (DB), randomized, placebo-controlled studies. In all studies, treatment period was preceded by a one week, placebo run-in period, designed to check selection criteria for insomnia based on patient reported sleep parameters collected on the daily sleep questionnaires (Studies LTE6217, and LTE6262) or based on PSG recordings during two screening nights in a sleep laboratory (Study EFC6220). Treatment period was followed by a placebo run-out period of 2 weeks designed to assess the effect of abrupt treatment discontinuation.
Studies LTE6217 and LTE6262 measured the efficacy of eplivanserin in real life conditions of use at home by collecting daily sleep parameters reported by patients through an Interactive Voice Response System (IVRS). […]

[2] = tested on: patients exposed to eplivanserin; experiment: Example 3: diverticulitis in pooled phase 2 and 3 trials; type: in vivo, human; conditions: for Incidence of Diverticulitis by sub-group: all eplivanserin doses
Description: Hereafter are the observations made in pooled phase 2 and 3 trials with eplivanserin or pharmaceutically acceptable salts or esters thereof.
The majority of patients were non-elderly, females, and Caucasian with a median age between 47 and 51 years across treatment groups.

[3] = tested on: patients with chronic (primary) insomnia characterized by sleep maintenance difficulties; experiment: Long-term studies LTE6217 and LTE6262 together: patient global impression, daytime function, residual effects; type: in vivo, human
Description: as §1, §2
(§3) Studies LTE6217 and LTE6262 measured the efficacy of eplivanserin in real life conditions of use at home by collecting daily sleep parameters reported by patients through an Interactive Voice Response System (IVRS).

[4] = cited from earlier work
[5] = tested on: patients with chronic (primary) insomnia characterized by sleep maintenance difficulties; experiment: Study EFC6220: 6-week polysomnography (PSG) study of sleep maintenance; type: in vivo, human; conditions: for PSG-NAW (number of awakenings) LS mean: p<0.0001
Description: as §1, §2
Study EFC6220 was designed to measure the pharmacodynamic activity of eplivanserin on sleep maintenance using PSG recordings in a sleep laboratory. Polysomnograms were recorded in standard conditions during 8 hours in bed.

[6] = tested on: patients with chronic (primary) insomnia characterized by sleep maintenance difficulties; experiment: Study LTE6262: 12-week patient-reported sleep parameters (daily sleep questionnaire, IVRS); type: in vivo, human; conditions: 5 mg/day; for Quality of sleep Difference from Placebo LS Mean / Refreshing QoS Difference from Placebo LS Mean / pr-NAW Difference from Placebo LS Mean / Quality of sleep LS Mean / Refreshing QoS LS Mean / pr-NAW LS Mean: MMRM, ITT; for Quality of sleep LS Mean / Refreshing QoS LS Mean / pr-NAW LS Mean: mean change
Description: as §1, §2, §3
In these tables, values are given as an amount of time expressed in minutes and seconds (mm:ss).

[7] = tested on: healthy male subjects; experiment: Example 2: single-dose cross-over study of sleep (EEG) and daytime functioning; type: in vivo, human
Experimental: The effects of eplivanserin or pharmaceutically acceptable salts or esters thereof on sleep and daytime functioning in healthy subjects were examined.
Double-blind, randomized, placebo (PBO)-controlled, 4-period, cross-over study with a 1-2-week washout between each period. Single oral doses of eplivanserin or pharmaceutically acceptable salts or esters thereof 1, 10 and 40 mg and PBO were given to healthy male subjects in either the evening (pm) or the morning (am; n=16). Sleep was assessed objectively using an EEG and subjectively by Leeds Sleep Evaluation Questionnaire. Next-day psychomotor function, memory and arousal were measured objectively via Critical Flicker Fusion (CFF), Choice Reaction Time, Compensatory Tracking and Sternberg memory-scanning tasks. Subjective assessment of drug activity was performed using Line Analogue Rating Scales.

[8] = all Phase 2-3 studies, all doses
[9] = 5 mg/day, in comparison with placebo, after 6 and 12 weeks
[10] = single oral 1, 10 and 40 mg, morning or evening, P=0.0001 vs PBO

## CN(C)CCO/N=C(/C=C/c1ccc(O)cc1)c1ccccc1F [eplivanserin, (1Z, 2E)-1-(2-fluorophenyl)-3-(4-hydroxyphenyl)-prop-2-en-1-one-O-(2-dimethylaminoethyl)oxime]
[1]; Week 6
  Quality of sleep Difference from Placebo LS Mean: −0.11
  Refreshing quality of sleep Difference from Placebo LS Mean: −0.11
  pr-NAW Difference from Placebo LS Mean: −0.39
  Quality of sleep LS Mean (SEM): −0.65 (0.02)
  Refreshing quality of sleep LS Mean (SEM): −0.62 (0.02)
  pr-NAW LS Mean (SEM): −1.16 (0.04)
[1]; Week 12
  Quality of sleep Difference from Placebo LS Mean: −0.10
  Refreshing quality of sleep Difference from Placebo LS Mean: −0.09
  pr-NAW Difference from Placebo LS Mean: −0.33
  Quality of sleep LS Mean (SEM): −0.73 (0.03)
  Refreshing quality of sleep LS Mean (SEM): −0.70 (0.03)
  pr-NAW LS Mean (SEM): −1.27 (0.04)
[2]; 30 patients
  final outcome of diverticulitis: Recovery was reported as final outcome in all patients, except 2
[2]; 30 patients with diverticulitis
  median time to onset of diverticulitis: 58 days
[2]; Age groups (years): <65
  Incidence of Diverticulitis by sub-group: 18/2636 (0.7%) (0.41 to 1.08)
[2]; Age groups (years): >=65
  Incidence of Diverticulitis by sub-group: 12/394 (3.0%) (1.58 to 5.26)
[2]; BMI (kg/m2): 25-30
  Incidence of Diverticulitis by sub-group: 17/1292 (1.3%) (0.77 to 2.10)
[2]; BMI (kg/m2): <25
  Incidence of Diverticulitis by sub-group: 6/1121 (0.5%) (0.20 to 1.16)
[2]; BMI (kg/m2): >=30
  Incidence of Diverticulitis by sub-group: 7/617 (1.1%) (0.46 to 2.32)
[2]; Concomitant drugs that inhibit prostaglandin synthesis: No
  Incidence of Diverticulitis by sub-group: 15/2161 (0.7%) (0.39 to 1.14)
[2]; Concomitant drugs that inhibit prostaglandin synthesis: Yes
  Incidence of Diverticulitis by sub-group: 15/869 (1.7%) (0.97 to 2.83)
[2]; Concomitant opioids: No
  Incidence of Diverticulitis by sub-group: 27/2999 (0.9%) (0.59 to 1.31)
[2]; Concomitant opioids: Yes
  Incidence of Diverticulitis by sub-group: 3/31 (9.7%) (2.04 to 25.75)
[2]; Creatinine clearance at baseline (ml/min): Mild: [50, 80[
  Incidence of Diverticulitis by sub-group: 11/669 (1.6%) (0.82 to 2.92)
[2]; Creatinine clearance at baseline (ml/min): Moderate/Severe: <50
  Incidence of Diverticulitis by sub-group: 1/44 (2.3%) (0.06 to 12.02)
[2]; Creatinine clearance at baseline (ml/min): Normal: >=80 or Missing
  Incidence of Diverticulitis by sub-group: 18/2317 (0.8%) (0.46 to 1.23)
[2]; Gender: Female
  Incidence of Diverticulitis by sub-group: 18/1651 (1.1%) (0.65 to 1.72)
[2]; Gender: Male
  Incidence of Diverticulitis by sub-group: 12/1379 (0.9%) (0.45 to 1.52)
[2]; Medical history of constipation: No
  Incidence of Diverticulitis by sub-group: 27/2943 (0.9%) (0.61 to 1.33)
[2]; Medical history of constipation: Yes
  Incidence of Diverticulitis by sub-group: 3/87 (3.4%) (0.72 to 9.75)
[2]; Medical history of diverticular disease (includes diverticulitis): No
  Incidence of Diverticulitis by sub-group: 18/2984 (0.6%) (0.36 to 0.95)
[2]; Medical history of diverticular disease (includes diverticulitis): Yes
  Incidence of Diverticulitis by sub-group: 12/46 (26.1%) (14.27 to 41.13)
[2]; Medical history of diverticulitis: No
  Incidence of Diverticulitis by sub-group: 23/3005 (0.8%) (0.49 to 1.15)
[2]; Medical history of diverticulitis: Yes
  Incidence of Diverticulitis by sub-group: 7/25 (28.0%) (12.07 to 49.39)
[2]; Race: Asian/Oriental/Other
  Incidence of Diverticulitis by sub-group: 0/138
[2]; Race: Black
  Incidence of Diverticulitis by sub-group: 1/162 (0.6%) (0.02 to 3.39)
[2]; Race: Caucasian
  Incidence of Diverticulitis by sub-group: 29/2730 (1.1%) (0.71 to 1.52)
[2]; [8]
  exposure adjusted incidence rate of diverticulitis: 3.32 patients with an event per 100 patient-years
  patients exposed who developed diverticulitis: 1%
[2]; all Phase 2-3 studies, all doses, n/N
  patients exposed who developed diverticulitis: 30/3030
[2]; at Week 24, all doses
  cumulative incidence rate of diverticulitis: about 1.6%
[2]; clinical trials in patients with sleep disorders
  time of diverticulitis events after treatment initiation: two months on average
[2]; from the onset of the event
  duration of diverticulitis episodes, mean: 23 days
  duration of diverticulitis episodes, median: 17 days
[2]; in the 30 patients
  total episodes of diverticulitis: 39
[2]; of 30 patients
  non-serious cases of diverticulitis: 23
  serious cases of diverticulitis: 7
[2]; per Investigator's judgment
  episodes of diverticulitis of mild intensity: Three out of 39
  episodes of diverticulitis of moderate intensity: 26/39
  episodes of diverticulitis of severe intensity: 10/39
[3]; [9]
  PGI-item 1: aid to sleep
  PGI-item 3: increasing duration of sleep
[3]; after 12 weeks, Study LTE6262 and meta-analysis of LTE6262 and LTE6217, compared with placebo
  improvement of activities related to work and hobby activities: positive effect
[3]; reported by insomniac patients, compared with placebo
  "sleepiness in the morning" and "ability to concentrate": significantly favourable effect
[3]; safety analyses
  potential for residual effects (next-day impairment): devoid of next-day impairment
[4]; average value
  half-life time: 50 h
[4]; in vivo
  absorption (well absorbed): > 70%
[5]; 5 mg
  sleep onset (PSG-LPS and pr-SOL): did not affect sleep onset
[5]; 5 mg/day compared with placebo
  percentage of time spent in sleep Stages 3&4 (slow wave sleep): increased percentage of time
  sleep Stage 1: decrease of Stage 1
[5]; Week 3, 5 mg
  PSG-NAW (number of awakenings) LS mean: −1.74
[5]; Week 3 and Week 6, difference with placebo did not reach statistical significance at Week 6
  PSG-WASO (Wake after sleep onset): decreasing PSG-WASO
[5]; Week 6, 5 mg
  PSG-NAW (number of awakenings) LS mean: −1.82
[5]; compared to placebo
  number of brief awakenings (<1 min): decreased the number of brief awakenings
[5]; in vivo
  QoS (quality of sleep): improved
  REM (rapid eye movement) sleep: not affected
  SWS/WASO+Stage 1 index: increase of SWS/WASO+Stage 1 index
[6]; observed from Day 1
  persistence of effect on sleep maintenance (pr-WASO): persisted up to 1 year of treatment
[6]; Week 6
  Quality of sleep Difference from Placebo LS Mean: −0.13
  Refreshing QoS Difference from Placebo LS Mean: −0.13
  pr-NAW Difference from Placebo LS Mean: −0.34
  Quality of sleep LS Mean: −0.58
  Refreshing QoS LS Mean: −0.55
  pr-NAW LS Mean: −0.99
[6]; Week 12
  Quality of sleep Difference from Placebo LS Mean: −0.14
  Refreshing QoS Difference from Placebo LS Mean: −0.15
  pr-NAW Difference from Placebo LS Mean: −0.35
  Quality of sleep LS Mean: −0.63
  Refreshing QoS LS Mean: −0.60
  pr-NAW LS Mean: −1.08
[7]; P=0.0004 vs PBO
  Sleep efficiency (time asleep/time in bed): significantly improved
[7]; P=0.03 vs PBO
  number of awakenings ≧120 s: significantly reduced
[7]; at all doses
  CFF threshold detection: slight decrease
[7]; in vivo
  Times to sleep onset and total sleep time: unaffected
  treatment-emergent AEs: No serious or severe treatment-emergent AEs were reported
[7]; regardless of dosage or dose timing (morning or evening)
  SWS: doubled
[7]; regardless of dose, or am or pm administration
  next-day objective psychomotor function or memory tests, subjective ratings of 'hangover' or CNS sedation: no detrimental effects
[7]; [10]
  'deep'/slow-wave sleep (SWS) time: significantly increased
  Stage 2 (light) sleep: decreased
